Source: patent US9752175B2, “Systems and methods to detect biofilm streamer growth and their uses” (The Trustees of Princeton University, priority 2014, dated 2017)

Tested on: Pseudomonas aeruginosa PA14
Experiment: Microfluidic pressure-driven flow assay (biofilm streamer clogging)
Type: cell-based
Conditions: low concentration of tetracycline; microfluidic channel
Method: Overnight P. aeruginosa cultures were backdiluted 1:100 in tryptone broth and grown to midlogarithmic phase (OD600=0.5). This culture (100 mL) was used to fill a reservoir connected via Tygon tubing (inner diameter 2.4 mm) to a microfluidic channel made from polydimethylsiloxane (PDMS) (Sylgard 184, Dow Corning). The channels (FIG. 1A) are 90 μm high, 200 μm wide, and constitute the narrowest part of the experimental flow system. Analogous to the inlet, the outlet of the microfluidic channel is also connected to Tygon tubing, and the effluent culture is collected in a dish on an analytical balance. By changing the elevation of the culture reservoir above the effluent collection dish, the applied pressure difference Δp is altered, which alters the flow rate through the channel. Operating this system for 24 h with H2O at a flow rate of 15.7±0.05 μL/min reduced the liquid level in the reservoir to decrease the pressure drop across the channel by 2.1%. […]
The weight of the effluent culture was measured every 4 s on an analytical balance (GD503, Sartorius), controlled with LabVIEW. […]
where the density was assumed to be the density of water, 1 kg/L. T and τ were calculated by fitting the function
[formula] to the measured flow rate Q(t), where Q0 is the flow rate before the clogging transition. […]

SMILES: CN(C)[C@@H]1C(O)=C(C(N)=O)C(=O)[C@@]2(O)C(O)=C3C(=O)c4c(O)cccc4[C@@](C)(O)[C@H]3C[C@@H]12 [tetracycline]
- duration of the clogging transition (τ): no effect
